# Experimental data reported in ChEMBL document CHEMBL1147585, “Potent imidazole and triazole CB1 receptor antagonists related to SR141716” (Bioorg Med Chem Lett, 2004).
# pKi: −log10 of the molar value.
# Key:
# [1] = biological target: T1, Cannabinoid receptor 1 (Homo sapiens, UniProt P21554); test: Evaluated for binding affinity towards human Cannabinoid receptor 1
# [2] = biological target: T1, Cannabinoid receptor 1; test: Evaluated for binding affinity towards human Cannabinoid receptor 1 at a concentration of 20 uM
# T1 sequence (P21554 whole entry): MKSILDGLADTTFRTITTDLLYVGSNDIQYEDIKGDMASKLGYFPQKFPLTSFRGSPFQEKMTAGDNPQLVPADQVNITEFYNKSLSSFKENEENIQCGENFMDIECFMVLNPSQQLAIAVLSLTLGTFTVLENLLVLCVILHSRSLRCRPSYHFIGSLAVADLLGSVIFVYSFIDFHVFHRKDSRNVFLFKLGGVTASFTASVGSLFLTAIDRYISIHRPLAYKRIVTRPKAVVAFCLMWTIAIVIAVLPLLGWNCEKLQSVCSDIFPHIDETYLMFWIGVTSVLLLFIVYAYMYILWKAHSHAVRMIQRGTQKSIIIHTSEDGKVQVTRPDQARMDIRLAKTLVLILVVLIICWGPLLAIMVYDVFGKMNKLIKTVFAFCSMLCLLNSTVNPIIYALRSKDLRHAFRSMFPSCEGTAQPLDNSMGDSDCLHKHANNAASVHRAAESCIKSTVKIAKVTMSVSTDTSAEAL
compound,measurement,setting,value
O=C(NN1CCCCC1)c1cn(-c2ccc(Cl)cc2)c(-c2ccc(Cl)cc2Cl)n1,pKi,[1],7.07
O=C(c1nc(-c2ccc(Cl)cc2)n(-c2ccc(Cl)cc2Cl)n1)N1CCN(c2cccc(C(F)(F)F)c2)CC1,pKi,[1],7.49
O=C(NN1CC2CCCC2C1)c1nc(-c2ccc(Cl)cc2Cl)n(-c2ccc(Cl)cc2)c1Br (configuration not stated),pKi,[1],7.96
CN(C)CCNC(=O)c1nc(-c2ccc(Cl)cc2Cl)n(-c2ccc(Cl)cc2)n1,inhibition,[2],49%
O=C(NC1CCc2ccccc21)c1nc(-c2ccc(Cl)cc2Cl)n(-c2ccc(Cl)cc2)n1 (configuration not stated),pKi,[1],7.00
Cc1c(C(=O)NN2CCCCCC2)nn(-c2ccc(Cl)cc2Cl)c1-c1ccc(Cl)cc1,pKi,[1],7.85
Cc1c(C(=O)Nc2ccncc2)nn(-c2ccc(Cl)cc2Cl)c1-c1ccc(Cl)cc1,pKi,[1],7.07
N#Cc1c(C(=O)NN2CC3CCCC3C2)nc(-c2ccc(Cl)cc2Cl)n1-c1ccc(Cl)cc1 (configuration not stated),pKi,[1],8.05
O=C(NC1CCN(Cc2ccccc2)C1)c1nc(-c2ccc(Cl)cc2Cl)n(-c2ccc(Cl)cc2)n1 (configuration not stated),pKi,[1],7.54
Cc1c(C(=O)N(C)C2CCCCC2)nn(-c2ccc(Cl)cc2Cl)c1-c1ccc(Cl)cc1,pKi,[1],7.00
CN(C)CCNC(=O)c1cn(-c2ccc(Cl)cc2)c(-c2ccc(Cl)cc2Cl)n1,inhibition,[2],48%
O=C(NN1CC2CCCC2C1)c1nc(-c2ccc(Cl)cc2Cl)n(-c2ccc(Cl)cc2)n1 (configuration not stated),pKi,[1],6.86
Cc1c(C(=O)NCCc2ccc(F)cc2)nn(-c2ccc(Cl)cc2Cl)c1-c1ccc(Cl)cc1,pKi,[1],7.04
CC1CCC(NC(=O)c2nc(-c3ccc(Cl)cc3Cl)n(-c3ccc(Cl)cc3)n2)CC1 (configuration not stated),pKi,[1],7.03
O=C(NN1CC2CCCC2C1)c1cn(-c2ccc(Cl)cc2)c(-c2ccc(Cl)cc2Cl)n1 (configuration not stated),pKi,[1],7.18
Cc1c(C(=O)NCCO)nn(-c2ccc(Cl)cc2Cl)c1-c1ccc(Cl)cc1,inhibition,[2],69%
Cc1c(C(=O)NCCN(C)C)nn(-c2ccc(Cl)cc2Cl)c1-c1ccc(Cl)cc1,inhibition,[2],70%
C#Cc1c(C(=O)NN2CC3CCCC3C2)nc(-c2ccc(Cl)cc2Cl)n1-c1ccc(Cl)cc1 (configuration not stated),pKi,[1],6.11
Cc1c(C(=O)NN2CC3CCCC3C2)nn(-c2ccc(Cl)cc2Cl)c1-c1ccc(Cl)cc1 (configuration not stated),pKi,[1],8.30
O=C(NC1CCCCC1)c1cn(-c2ccc(Cl)cc2)c(-c2ccc(Cl)cc2Cl)n1,pKi,[1],7.32
COc1cc(Cl)ccc1-c1nc(C(=O)NN2CC3CCCC3C2)nn1-c1ccc(Cl)cc1Cl (configuration not stated),pKi,[1],6.57
O=C(NN1CCCCCC1)c1cn(-c2ccc(Cl)cc2)c(-c2ccc(Cl)cc2Cl)n1,pKi,[1],7.11
Cc1c(C(=O)NC(C)C(C)C)nn(-c2ccc(Cl)cc2Cl)c1-c1ccc(Cl)cc1 (configuration not stated),pKi,[1],7.39
Cc1c(C(=O)NC(C)c2ccc(Cl)cc2)nc(-c2ccc(Cl)cc2Cl)n1-c1ccc(Cl)cc1 (configuration not stated),pKi,[1],7.48
CC(NC(=O)c1nc(-c2ccc(Cl)cc2Cl)n(-c2ccc(Cl)cc2)n1)c1ccc(Cl)cc1 (configuration not stated),pKi,[1],7.18
O=C(NN1CCCCCC1)c1nc(-c2ccc(Cl)cc2)n(-c2ccc(Cl)cc2Cl)n1,inhibition,[2],43%
Cc1c(C(=O)NC2CCCCC2)nn(-c2ccc(Cl)cc2Cl)c1-c1ccc(Cl)cc1,pKi,[1],7.38
